Consider 14 molecules from patent US10494378B2, “Fused ring pyrimidine compound, intermediate, and preparation method, composition and use thereof” (GUANGZHOU MAXINOVEL PHARMACEUTICALS CO., LTD., priority 2015, dated 2019).

Holding throughout (type): biochemical
In one assay the target is T1, JAK1 kinase (Homo sapiens, UniProt P23458).
T1 construct: purchased Carna 08-144
Kind of assay: IC50 evaluation assay on JAK1 kinase inhibition (Caliper). The note with it: adenosine triphosphate at Km; 1 hour at 28° C.; average of two tests; read-out: IC50 (nM) inhibiting JAK 1 kinase. As for the experimental part:
(§1) 1. The compound was dissolved in 100% DMSO, diluted into solutions with appropriate concentration gradients with water according to experimental requirement, and added to a 384-well plate.
(§2) 2. JAK2 kinase (Carna, Cat. No. 08-045, Lot. No. 07CBS-1927) and JAK3 kinase (Carna, Cat. No. 08-046, Lot. No. 08CBS-0371) were diluted to the optimum concentration with the following buffer solution: 50 mM HEPES, pH 7.5, 0.0015% Brij-35, 2 mM DTT. JAK1 kinase (Carna, Cat. No. 08-144, Lot. No. 11CBS-0144D) was diluted to the optimum concentration with the following buffer solution: 25 mM HEPES pH 7.5, 0.01% Brij-35, 2 mM DTT, 0.01M Triton. Transfer to the 384-well plate and incubated with the compound for a period of time.
(§3) 3. […] The substrate of JAK1 was diluted to the optimum concentration with the following buffer: 25 mM HEPES, pH 7.5, 0.01% Brij-35, 10 mM MgCl2, 0.01M Triton, adenosine triphosphate at Km. Add to the 384-well plate to initiate there action and react for 1 hour at 28° C.
(§4) 4. 1 Eq. of sulfuric acid solution was added to terminate the reaction, the conversion rate was read with Caliper Reader. The inhibition rate was calculated as the average of two tests.

Another assay concerns the target T2, JAK3 kinase (Homo sapiens, UniProt P52333).
T2 construct: purchased Carna 08-046
T2 sequence (P52333 1-1124): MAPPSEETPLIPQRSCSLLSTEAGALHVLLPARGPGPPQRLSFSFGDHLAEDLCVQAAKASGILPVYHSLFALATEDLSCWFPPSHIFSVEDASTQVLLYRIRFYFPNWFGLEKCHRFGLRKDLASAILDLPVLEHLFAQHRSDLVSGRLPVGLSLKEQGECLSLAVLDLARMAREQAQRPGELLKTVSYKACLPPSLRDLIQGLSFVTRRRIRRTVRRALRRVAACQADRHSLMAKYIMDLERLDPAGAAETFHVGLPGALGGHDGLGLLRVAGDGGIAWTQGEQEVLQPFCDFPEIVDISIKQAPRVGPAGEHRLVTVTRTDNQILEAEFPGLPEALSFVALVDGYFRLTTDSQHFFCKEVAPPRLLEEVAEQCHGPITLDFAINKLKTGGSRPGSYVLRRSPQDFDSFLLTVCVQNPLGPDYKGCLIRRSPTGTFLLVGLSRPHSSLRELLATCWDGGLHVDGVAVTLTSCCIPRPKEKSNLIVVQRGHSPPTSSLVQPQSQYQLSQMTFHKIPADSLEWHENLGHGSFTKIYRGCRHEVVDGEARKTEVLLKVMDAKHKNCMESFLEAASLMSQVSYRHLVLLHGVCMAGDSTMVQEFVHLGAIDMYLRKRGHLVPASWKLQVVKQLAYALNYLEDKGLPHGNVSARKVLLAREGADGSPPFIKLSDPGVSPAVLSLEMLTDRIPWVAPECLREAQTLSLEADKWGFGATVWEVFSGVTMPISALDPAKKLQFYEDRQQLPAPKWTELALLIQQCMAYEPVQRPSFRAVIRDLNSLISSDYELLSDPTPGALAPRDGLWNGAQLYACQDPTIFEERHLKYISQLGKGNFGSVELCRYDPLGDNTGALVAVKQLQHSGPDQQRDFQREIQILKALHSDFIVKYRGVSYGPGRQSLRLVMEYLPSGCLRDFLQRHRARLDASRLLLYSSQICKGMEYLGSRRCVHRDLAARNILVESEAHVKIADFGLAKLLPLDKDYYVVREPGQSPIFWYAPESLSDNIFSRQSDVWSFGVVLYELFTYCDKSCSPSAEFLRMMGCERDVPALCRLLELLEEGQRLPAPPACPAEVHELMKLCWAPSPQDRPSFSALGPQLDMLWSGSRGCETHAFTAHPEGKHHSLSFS
Kind of assay: IC50 evaluation assay on JAK3 kinase inhibition (Caliper). The note with it: adenosine triphosphate at Km; 1 hour at 28° C.; average of two tests; read-out: IC50 (nM) inhibiting JAK 3 kinase. As to the method:
as §1, §2, §3, §4

The next assay deals with T3, JAK2 kinase (Homo sapiens, UniProt O60674).
T3 construct: purchased Carna 08-045
Briefly: IC50 evaluation assay on JAK2 kinase inhibition (Caliper). The settings on record: adenosine triphosphate at Km; 1 hour at 28° C.; average of two tests; read-out: IC50 (nM) inhibiting JAK 2 kinase. As for the experimental part: as §1, §2, §3, §4

T3 sequence (O60674 whole entry): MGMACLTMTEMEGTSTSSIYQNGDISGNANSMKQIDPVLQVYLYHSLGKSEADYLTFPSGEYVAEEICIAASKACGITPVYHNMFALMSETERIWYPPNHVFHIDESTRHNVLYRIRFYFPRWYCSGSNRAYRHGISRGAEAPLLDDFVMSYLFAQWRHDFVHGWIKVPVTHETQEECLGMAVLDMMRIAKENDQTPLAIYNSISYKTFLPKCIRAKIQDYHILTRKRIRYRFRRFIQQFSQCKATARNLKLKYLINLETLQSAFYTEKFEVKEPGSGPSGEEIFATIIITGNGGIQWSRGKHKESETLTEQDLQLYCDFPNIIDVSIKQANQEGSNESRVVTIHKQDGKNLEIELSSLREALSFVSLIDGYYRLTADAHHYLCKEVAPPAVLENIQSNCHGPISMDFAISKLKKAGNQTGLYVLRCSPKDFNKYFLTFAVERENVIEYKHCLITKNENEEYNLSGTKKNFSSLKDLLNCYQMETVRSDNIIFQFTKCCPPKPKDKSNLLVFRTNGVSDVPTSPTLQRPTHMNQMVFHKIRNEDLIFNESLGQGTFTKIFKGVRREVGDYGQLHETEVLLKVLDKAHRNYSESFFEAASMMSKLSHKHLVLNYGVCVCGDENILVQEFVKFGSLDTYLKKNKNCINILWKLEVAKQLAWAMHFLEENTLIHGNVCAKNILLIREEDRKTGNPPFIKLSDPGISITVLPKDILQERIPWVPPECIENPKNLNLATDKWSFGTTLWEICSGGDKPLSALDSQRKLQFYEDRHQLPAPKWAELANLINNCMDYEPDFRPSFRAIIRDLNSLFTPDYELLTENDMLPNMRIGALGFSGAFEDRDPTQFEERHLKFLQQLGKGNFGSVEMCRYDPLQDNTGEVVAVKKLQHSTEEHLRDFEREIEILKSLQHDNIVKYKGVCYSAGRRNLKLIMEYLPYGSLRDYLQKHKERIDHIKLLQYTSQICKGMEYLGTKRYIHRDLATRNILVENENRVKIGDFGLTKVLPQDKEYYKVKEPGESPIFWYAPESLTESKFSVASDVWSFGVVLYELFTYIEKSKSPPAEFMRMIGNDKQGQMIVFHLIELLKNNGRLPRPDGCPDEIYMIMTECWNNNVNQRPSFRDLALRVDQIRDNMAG
T1 sequence (P23458 whole entry): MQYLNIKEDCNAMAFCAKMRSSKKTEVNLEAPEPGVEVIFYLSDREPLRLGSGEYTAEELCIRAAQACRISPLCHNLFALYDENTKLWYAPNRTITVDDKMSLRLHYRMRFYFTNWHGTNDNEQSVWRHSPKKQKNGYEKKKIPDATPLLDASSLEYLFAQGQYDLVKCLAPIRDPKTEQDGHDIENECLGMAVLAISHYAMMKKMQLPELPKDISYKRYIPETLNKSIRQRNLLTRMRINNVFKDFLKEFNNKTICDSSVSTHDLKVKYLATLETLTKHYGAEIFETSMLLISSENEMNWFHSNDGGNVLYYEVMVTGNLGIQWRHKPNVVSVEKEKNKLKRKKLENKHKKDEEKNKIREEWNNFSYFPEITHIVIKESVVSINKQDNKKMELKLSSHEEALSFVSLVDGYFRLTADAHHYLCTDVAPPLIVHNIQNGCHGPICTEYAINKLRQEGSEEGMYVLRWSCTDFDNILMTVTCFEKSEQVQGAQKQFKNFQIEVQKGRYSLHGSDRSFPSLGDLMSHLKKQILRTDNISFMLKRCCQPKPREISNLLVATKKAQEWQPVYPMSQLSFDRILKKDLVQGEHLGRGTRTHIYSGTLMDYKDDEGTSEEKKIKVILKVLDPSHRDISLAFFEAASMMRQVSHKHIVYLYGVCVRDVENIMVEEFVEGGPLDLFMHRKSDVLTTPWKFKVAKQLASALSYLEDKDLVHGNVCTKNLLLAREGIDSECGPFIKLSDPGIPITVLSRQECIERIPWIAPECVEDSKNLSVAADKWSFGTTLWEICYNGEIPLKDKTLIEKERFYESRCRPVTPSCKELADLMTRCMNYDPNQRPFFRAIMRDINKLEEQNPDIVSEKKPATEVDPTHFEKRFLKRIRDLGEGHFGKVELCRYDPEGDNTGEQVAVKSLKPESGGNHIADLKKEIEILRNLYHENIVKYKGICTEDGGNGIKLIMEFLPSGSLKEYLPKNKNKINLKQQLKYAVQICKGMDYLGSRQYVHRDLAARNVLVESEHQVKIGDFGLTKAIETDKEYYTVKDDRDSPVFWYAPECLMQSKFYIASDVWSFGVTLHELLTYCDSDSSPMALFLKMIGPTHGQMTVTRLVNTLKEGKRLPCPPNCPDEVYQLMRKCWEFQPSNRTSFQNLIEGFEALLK

Turning to `Cc1sc2cnc(Nc3cnn(C)c3)nc2c1-c1cccc2c1OCO2` [Compound 30, N-[7-(2H-1,3-benzodioxol-4-yl)-6-methylthieno[3,2-d]pyrimidinyl-2-yl]-1-methyl-1H-pyrazol-4-amine], the IC50 came out at 8.5 nM at JAK1 kinase, 5.1 nM at JAK3 kinase and 1.9 nM at JAK2 kinase.
For the molecule `Cc1sc2cnc(Nc3cnn(C4CCNCC4)c3)nc2c1-c1cccc2c1OCC2` [Compound 32, N-[7-(2,3-dihyro-1-benzofuran-7-yl)-6-methylthieno[3,2-d]pyrimidinyl-2-yl]-1-(piperidinyl-4-yl)-1H-pyrazol-4-amine], the IC50 on JAK1 kinase is 6.6 nM; on JAK3 kinase it was 0.42 nM; at JAK2 kinase, 0.79 nM.
On the same counts, the results for `Cc1sc2cnc(Nc3cnn(C)c3)nc2c1-c1ccccc1Cl` [Compound 33, N-[7-(2-chlorophenyl)-6-methylthieno[3,2-d]pyrimidinyl-2-yl]-1-methyl-1H-pyrazol-4-amine] are 18.5 nM, 12.9 nM and 8.9 nM.
Consider `COc1ccccc1-c1c(C)sc2cnc(Nc3cnn(C4CCNCC4)c3)nc12` [Compound 35, N-[7-(2-methoxyphenyl)-6-methylthieno[3,2-d]pyrimidinyl-2-yl]-1-(piperidinyl-4-yl)-1H-pyrazol-4-amine], for which the values for the IC50 at JAK1 kinase, at JAK3 kinase and at JAK2 kinase were 3.8 nM, 0.84 nM and 0.7 nM, respectively.
On the same counts, the results for `Cc1sc2cnc(Nc3cnn(C4CCN(C(=O)CO)CC4)c3)nc2c1-c1cccc2c1OCC2` [Compound 36, 1-[4-(4-{[7-(2,3-dihydro-1-benzofuran-7-yl)-6-methylthieno[3,2-d]pyrimidinyl-2-yl]amino}-1H-pyrazol-1-yl)piperidinyl-1-yl]-2-hydroxyacetamide] are 13 nM, 0.41 nM and 0.82 nM.
On the same counts, the results for `Cc1sc2cnc(Nc3cnn(C4CCOCC4)c3)nc2c1-c1cccc2c1OCC2` [Compound 39, N-[7-(2,3-dihydro-1-benzofuran-7-yl)-6-methylthieno[3,2-d]pyrimidin-2-yl]-1-(tetrahydropyran-4-yl)-1H-pyrazol-4-amine] are 18 nM, 0.71 nM and 1.6 nM.
`Cc1sc2cnc(Nc3cnn(C)c3)nc2c1-c1ccccc1N(C)C` [Compound 41, N-{7-[2-(dimethylamino)phenyl]-6-methylthieno[3,2-d]pyrimidin-2-yl}-1-methyl-1H-pyrazol-4-amine]: the IC50 was found to be 41 nM at JAK1 kinase, 33.7 nM on JAK3 kinase and 36 nM at JAK2 kinase.
On the same counts, the results for `COc1ccncc1-c1c(C)sc2cnc(Nc3cnn(C)c3)nc12` [Compound 42] are 47 nM, 29 nM and 13 nM.
On the same counts, the results for `COc1ncccc1-c1c(C)sc2cnc(Nc3cnn(C)c3)nc12` [Compound 43] are 7.2 nM, 1 nM and 1.7 nM.
Taken in the same sequence, the figures for `c1cc2c(c(-c3cccc4cnc(Nc5cnn(C6CCNCC6)c5)nc34)c1)OCC2` [Compound 44, 8-(2,3-Dihydro-1-benzofuran-7-yl)-N-[1-(4-piperidin)-1H-pyrazol-4-yl]quinazolin-2-amine] were 54 nM, 16 nM and 7.7 nM.
With `COc1ccccc1-c1cccc2cnc(Nc3cnn(C4CCNCC4)c3)nc12` [Compound 45, 8-(2-Methoxyphenyl)-N-[1-(4-piperidinyl)-1H-pyrazol-4-yl]quinazolin-2-amine], the values for the IC50 on JAK1 kinase, at JAK3 kinase and on JAK2 kinase were 2.4 nM, 1 nM and 5.8 nM, respectively.
Regarding `COc1ccccc1-c1cncc2cnc(Nc3cnn(C4CCNCC4)c3)nc12` [Compound 47, N-[8-(2-methoxyphenyl)pyridino[4,3-d]pyrimidin-2-yl]-1-(4-piperidin)-1H-pyrazol-4-amine], the results for the IC50 on JAK1 kinase, on JAK3 kinase and on JAK2 kinase were 58 nM, 3 nM and 9.6 nM, respectively.
Taken in the same sequence, the figures for `COc1cc(S(C)(=O)=O)ccc1-c1c(C)sc2cnc(Nc3cnn(C4CCNCC4)c3)nc12` [Compound 48, N-[7-(4-methylsulfonyl-2-methoxyphenyl)-6-methylthieno[3,2-d]pyrimidin-2-yl]-1-(4-piperidin)-1H-pyrazol-4-amine] were 4.2 nM, 1.3 nM and 0.51 nM.
Taken in the same sequence, the figures for `COc1cc(S(C)(=O)=O)ccc1-c1cccc2cnc(Nc3cnn(C4CCNCC4)c3)nc12` [Compound 49, 8-(4-methylsulfonyl-2-methoxyphenyl)-N-[1-(4-piperidin)-1H-pyrazol-4-yl]quinazolin-2-amine] were 58 nM, 9.8 nM and 2.1 nM.
